Measurements reported in ChEMBL document CHEMBL1201862, “PubChem BioAssay data set” (2004).
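These data come from cells grown in 96-well plates and exposed to compound for 48 hours at five concentrations. GI50 is the concentration that inhibits growth by half.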 The source made the active and inactive calls. Rule as the data show it: active = GI50 up to about 1.1 µM and inactive = higher.

What was measured:
Assay in all cases: inhibition of tumour cell growth, NCI panel, 48 h
SN12C = tested on: SN12C
SNB-75 = tested on: SNB-75
SW-620 = tested on: SW-620
UACC-257 = tested on: UACC-257
RPMI-8226 = tested on: RPMI-8226
HCT-15 = tested on: HCT-15
HCT-116 = tested on: HCT-116
K562 = tested on: K562
TK-10 = tested on: TK-10
SK-MEL-28 = tested on: SK-MEL-28
HL-60 = tested on: HL-60
SF-268 = tested on: SF-268
M14 = tested on: M14
DMS-114 = tested on: DMS-114
IGROV-1 = tested on: IGROV-1
NCI-H23 = tested on: NCI-H23
NCI/ADR-RES = tested on: NCI/ADR-RES
T47D = tested on: T47D
MDA-MB-435 = tested on: MDA-MB-435

Row | SMILES | GI50 (SN12C) | GI50 (SNB-75) | GI50 (SW-620) | GI50 (UACC-257) | GI50 (RPMI-8226) | GI50 (HCT-15) | GI50 (HCT-116) | GI50 (K562) | GI50 (TK-10) | GI50 (SK-MEL-28) | GI50 (HL-60) | GI50 (SF-268) | GI50 (M14) | GI50 (DMS-114) | GI50 (IGROV-1) | GI50 (NCI-H23) | GI50 (NCI/ADR-RES) | GI50 (T47D) | GI50 (MDA-MB-435)
1 | COc1ccc(N2C(=O)C3c4[nH]c5ccccc5c4C4CCCCC4C3C2=O)cc1 (configuration not stated) | 25.5 µM (inactive) | 3.5 µM (inactive) | 29.1 µM (inactive) | 27.8 µM (inactive) | 32.3 µM (inactive) | > 100 µM | 7.11 µM (inactive) | 18.2 µM (inactive) | 21.3 µM (inactive) | 10.6 µM (inactive) | 16.2 µM (inactive) | 8.61 µM (inactive) | 18 µM (inactive) | 8.63 µM (inactive) | 24.7 µM (inactive) | 25.8 µM (inactive) | – | – | –
2 | Clc1ccc(-c2cn3c(nc4ccccc43)c(/C=C/c3cccs3)n2)cc1 | > 100 µM (inactive) | > 100 µM (inactive) | > 100 µM (inactive) | 52.6 µM (inactive) | 36.5 µM (inactive) | > 100 µM | 97.9 µM (inactive) | 49.1 µM (inactive) | 86.1 µM (inactive) | > 100 µM (inactive) | > 100 µM (inactive) | 72.8 µM (inactive) | > 100 µM (inactive) | – | 92 µM (inactive) | 52.5 µM (inactive) | > 100 µM (inactive) | 27.3 µM (inactive) | 37.3 µM (inactive)
3 | CN(C)c1ccc(C2ON=C(c3ccccc3)N2C23CC4CC(CC(C4)C2)C3)cc1 (configuration not stated) | > 10 µM (inactive) | > 10 µM (inactive) | > 10 µM (inactive) | > 10 µM (inactive) | > 10 µM (inactive) | > 10 µM | > 10 µM (inactive) | 9.12 µM (inactive) | > 10 µM (inactive) | > 10 µM (inactive) | 9.55 µM (inactive) | > 10 µM (inactive) | > 10 µM (inactive) | – | > 10 µM (inactive) | > 10 µM (inactive) | > 10 µM (inactive) | > 10 µM (inactive) | > 10 µM (inactive)
4 | O=C(CC/C(CC(=O)c1ccc(Br)cc1)=N\O)Nc1ccc(Cl)c(Cl)c1 | > 100 µM (inactive) | 23.8 µM (inactive) | 45.2 µM (inactive) | 44.4 µM (inactive) | 46.1 µM (inactive) | 86.7 µM | > 100 µM (inactive) | 25.4 µM (inactive) | 18 µM (inactive) | > 100 µM (inactive) | 19.6 µM (inactive) | > 100 µM (inactive) | > 100 µM (inactive) | 27.9 µM (inactive) | 60.7 µM (inactive) | > 100 µM (inactive) | – | – | –
5 | CCCCCCc1ccc(C(=O)NO)cc1 | 21.9 µM (inactive) | 42.9 µM (inactive) | 64.4 µM (inactive) | 44.7 µM (inactive) | 12.6 µM (inactive) | 12.6 µM | 29.6 µM (inactive) | 24.5 µM (inactive) | 51.5 µM (inactive) | 56.5 µM (inactive) | 16.5 µM (inactive) | 25.3 µM (inactive) | 35.1 µM (inactive) | – | 24.5 µM (inactive) | 28.3 µM (inactive) | 15.3 µM (inactive) | 19.5 µM (inactive) | 53.5 µM (inactive)
6 | Cc1cccc2c3ccc4c(c3n(C)c12)C(=O)C=CC4=O | > 100 µM (inactive) | > 100 µM (inactive) | > 100 µM (inactive) | > 100 µM (inactive) | 32.8 µM (inactive) | – | > 100 µM (inactive) | > 100 µM (inactive) | > 100 µM (inactive) | > 100 µM (inactive) | 17.1 µM (inactive) | > 100 µM (inactive) | > 100 µM (inactive) | 41.1 µM (inactive) | > 100 µM (inactive) | 18.6 µM (inactive) | – | – | –
7 | CC(=O)NCCc1c[nH]c2ccc(Cl)cc12 | > 100 µM (inactive) | 33.4 µM (inactive) | > 100 µM (inactive) | > 100 µM (inactive) | > 100 µM (inactive) | > 100 µM | > 100 µM (inactive) | > 100 µM (inactive) | > 100 µM (inactive) | > 100 µM (inactive) | > 100 µM (inactive) | > 100 µM (inactive) | 90.2 µM (inactive) | – | > 100 µM (inactive) | > 100 µM (inactive) | > 100 µM (inactive) | > 100 µM (inactive) | > 100 µM (inactive)
8 | Nc1ncnc2c1nc(-c1ccccc1)n2C1OC(CO)C(O)C1O (configuration not stated) | > 100 µM (inactive) | > 100 µM (inactive) | > 100 µM (inactive) | > 100 µM (inactive) | > 100 µM (inactive) | > 100 µM | > 100 µM (inactive) | > 100 µM (inactive) | > 100 µM (inactive) | > 100 µM (inactive) | > 100 µM (inactive) | > 100 µM (inactive) | > 100 µM (inactive) | – | > 100 µM (inactive) | > 100 µM (inactive) | > 100 µM (inactive) | > 100 µM (inactive) | > 100 µM (inactive)
